Reference: US7247617B2, “Sixteen-member macrolide antiinfective agents” (Kosan Biosciences Incorporated, priority 2004, dated 2007)

Legend:
S. pneumoniae = assay: Biological activity against bacterial strains: S. pneumoniae; format: cell-based, Streptococcus pneumoniae; set-up: Biological Activity, S. pneumoniae ATCC6301 / Biological Activity, S. pneumoniae ATCC700671 / Biological Activity, S. pneumoniae ATCC700676* / Biological Activity, S. pneumoniae ATCC700677* / Biological Activity, S. pneumoniae ATCC700905* / Biological Activity, S. pneumoniae ATCC700906* / Biological Activity, S. pneumoniae ATCC49619: unit not given here; conditions: for Biological Activity, S. pneumoniae ATCC6301: strain ATCC6301; for Biological Activity, S. pneumoniae ATCC49619: strain ATCC49619; for Biological Activity, S. pneumoniae ATCC700671: strain ATCC700671; for Biological Activity, S. pneumoniae ATCC700676*: strain ATCC700676, macrolide resistant strain; for Biological Activity, S. pneumoniae ATCC700677*: strain ATCC700677, macrolide resistant strain; for Biological Activity, S. pneumoniae ATCC700905*: strain ATCC700905, macrolide resistant strain; for Biological Activity, S. pneumoniae ATCC700906*: strain ATCC700906, macrolide resistant strain
S. aureus = assay: Biological activity against bacterial strains: S. aureus; format: cell-based, Staphylococcus aureus; set-up: unit not given here; conditions: for Biological Activity, S. aureus ATCC6538p: strain ATCC6538p; for Biological Activity, S. aureus ATCC14154*: strain ATCC14154, macrolide resistant strain; for Biological Activity, S. aureus ATCC29213: strain ATCC29213; for Biological Activity, S. aureus ATCC33591*: strain ATCC33591, macrolide resistant strain; for Biological Activity, S. aureus ATCCBAA-39*: strain ATCCBAA-39, macrolide resistant strain; for Biological Activity, S. aureus ATCCBAA-44*: strain ATCCBAA-44, macrolide resistant strain
S. epidermidis = assay: Biological activity against bacterial strains: S. epidermidis; format: cell-based, Staphylococcus epidermidis; conditions: strain ATCC12228
E. faecalis = assay: Biological activity against bacterial strains: E. faecalis; format: cell-based, Enterococcus faecalis; conditions: strain ATCC51575

SMILES	Biological Activity, S. pneumoniae ATCC6301 (S. pneumoniae)	Biological Activity, S. pneumoniae ATCC49619 (S. pneumoniae)	Biological Activity, S. pneumoniae ATCC700671 (S. pneumoniae)	Biological Activity, S. pneumoniae ATCC700676* (S. pneumoniae)	Biological Activity, S. pneumoniae ATCC700677* (S. pneumoniae)	Biological Activity, S. pneumoniae ATCC700905* (S. pneumoniae)	Biological Activity, S. pneumoniae ATCC700906* (S. pneumoniae)	Biological Activity, S. aureus ATCC6538p (S. aureus)	Biological Activity, S. aureus ATCC14154* (S. aureus)	Biological Activity, S. aureus ATCC29213 (S. aureus)	Biological Activity, S. aureus ATCC33591* (S. aureus)	Biological Activity, S. aureus ATCCBAA-39* (S. aureus)	Biological Activity, S. aureus ATCCBAA-44* (S. aureus)	Biological Activity, S. epidermidis ATCC12228 (S. epidermidis)	Biological Activity, E. faecalis ATCC51575 (E. faecalis)
CCC1OC(=O)CC(O)C(C)C(OC2OC(C)C(O)C(N(C)C)C2O)C(CCN2CC(C)CC(C)C2)CC(C)C(=NOCc2ccc(F)cc2)C=CC(C)=CC1COC1OC(C)C(O)C(OC)C1OC (single isomer, unassigned) [Compound Q]	0.20	0.39	0.39	0.78	6.25	0.78	12.5	0.20	0.78	0.78	12.5	>12.5	>12.5	0.78	>12.5
CCC1OC(=O)CC(O)C(C)C(OC2OC(C)C(O)C(N(C)C)C2O)C(CCN2CC(C)CC(C)C2)CC(C)C(=NOCCOc2ccccc2)C=CC(C)=CC1CO (stereo not drawn) [Compound V]	0.20	0.39	0.39	0.78	>12.5	0.39	>12.5	0.78	6.25	6.25	>12.5	>12.5	>12.5	6.25	>12.5
CC[C@H]1OC(=O)C[C@@H](O)[C@H](C)[C@@H](OC2OC(C)C(O)C(N(C)C)C2O)[C@@H](CC=O)C[C@@H](C)C(=N/OCc2ccc(F)cc2)/C=C/C(C)=C/C1CO (stereo partly drawn) [Compound IId]	0.025	0.2	0.2	0.025	1.56	0.2	>12.5	0.39	1.56	1.56	>12.5	>12.5	>12.5	0.78	>12.5
CCC1OC(=O)CC(O)C(C)C(OC2OC(C)C(O)C(N(C)C)C2O)C(CCN2CC(C)CC(C)C2)CC(C)C(=NOCC(=O)N2CCN(c3ccccc3)CC2)C=CC(C)=CC1CO (stereo not drawn) [Compound X]	0.049	0.049	0.098	1.56	>12.5	0.78	>12.5	0.39	3.12	1.56	>12.5	>12.5	>12.5	0.78	>12.5
CCC1OC(=O)CC(O)C(C)C(OC2OC(C)C(O)C(N(C)C)C2O)C(CCN2CC(C)CC(C)C2)CC(C)C(=NOCCCOc2ccc3ncccc3c2)C=CC(C)=CC1CO (stereo not drawn) [Compound R]	6.25	6.25	6.25	>12.5	>12.5	>12.5	>12.5	12.5	>12.5	>12.5	>12.5	>12.5	>12.5	>12.5	>12.5
